The values that follow come from ChEMBL document CHEMBL3603759, “Ribosome-targeting antibiotics as inhibitors of oncogenic microRNAs biogenesis: Old scaffolds for new perspectives in RNA targeting” (Bioorg Med Chem, 2015).

Test [1] is described as follows: Inhibition of pre-miR-372 (unknown origin) cleavage assessed as reduction of oncogenic microRNAs biogenesis at 200 uM by measuring fluorescence every minute for 5 hrs using 5'-FAM,3'-dabcyl-pre-miRNA beacons by FRET assay in presence of recombinant Dicer.
The nature of test [2]: Inhibition of pre-miR-373 (unknown origin) cleavage assessed as reduction of oncogenic microRNAs biogenesis at 200 uM by measuring fluorescence every minute for 5 hrs using 5'-FAM,3'-dabcyl-pre-miRNA beacons by FRET assay in presence of recombinant Dicer.
The nature of test [3]: Inhibition of pre-miR-17 (unknown origin) cleavage assessed as reduction of oncogenic microRNAs biogenesis at 200 uM by measuring fluorescence every minute for 5 hrs using 5'-FAM,3'-dabcyl-pre-miRNA beacons by FRET assay in presence of recombinant Dicer.
Test [4] is described as follows: Inhibition of pre-miR-21 (unknown origin) cleavage assessed as reduction of oncogenic microRNAs biogenesis at 200 uM by measuring fluorescence every minute for 5 hrs using 5'-FAM,3'-dabcyl-pre-miRNA beacons by FRET assay in presence of recombinant Dicer.
Test [5] can be described thus: Inhibition of pre-miR-372 (unknown origin) cleavage assessed as reduction of oncogenic microRNAs biogenesis by measuring fluorescence every minute for 5 hrs using 5'-FAM,3'-dabcyl-pre-miRNA beacons by FRET assay in presence of recombinant Dicer.
A short description of test [6]: Inhibition of pre-miR-373 (unknown origin) cleavage assessed as reduction of oncogenic microRNAs biogenesis by measuring fluorescence every minute for 5 hrs using 5'-FAM,3'-dabcyl-pre-miRNA beacons by FRET assay in presence of recombinant Dicer.
Test [7] can be described thus: Inhibition of pre-miR-21 (unknown origin) cleavage assessed as reduction of oncogenic microRNAs biogenesis by measuring fluorescence every minute for 5 hrs using 5'-FAM,3'-dabcyl-pre-miRNA beacons by FRET assay in presence of recombinant Dicer.
Test [8] is described as follows: Binding affinity to 5'-FAM-pre-miR-372 (unknown origin) after 4 hrs by fluorescence assay.
The nature of test [9]: Binding affinity to 5'-FAM-pre-miR-17 (unknown origin) after 4 hrs by fluorescence assay.
Test [10] is described as follows: Binding affinity to 5'-FAM-pre-miR-373 (unknown origin) after 4 hrs by fluorescence assay.
Test [11] can be described thus: Binding affinity to 5'-FAM-pre-miR-372 (unknown origin) after 4 hrs by fluorescence assay in presence of 100-fold excess of Escherichia coli tRNA.
Test [12] can be described thus: Ratio of Kd for 5'-FAM-pre-miR-372 (unknown origin) in presence of 100-fold excess of Escherichia coli tRNA to Kd for 5'-FAM-pre-miR-372 (unknown origin).
Test [13] in a line: Binding affinity to 5'-FAM-pre-miR-372 (unknown origin) after 4 hrs by fluorescence assay in presence of 100-fold excess of 15-mer DNA.
The nature of test [14]: Ratio of Kd for 5'-FAM-pre-miR-372 (unknown origin) in presence of 100-fold excess of 15-mer DNA to Kd for 5'-FAM-pre-miR-372 (unknown origin).
The nature of test [15]: Binding affinity to 5'-FAM-pre-miR-372 (unknown origin) assessed as change in total free energy by thermodynamic assay.
A short description of test [16]: Inhibition of pre-miR-17 (unknown origin) cleavage assessed as reduction of oncogenic microRNAs biogenesis by measuring fluorescence every minute for 5 hrs using 5'-FAM,3'-dabcyl-pre-miRNA beacons by FRET assay in presence of recombinant Dicer.

Activity calls are given as the source filed them. The calls are words filed in the database; no cut-off is given here.

Regarding `CN[C@@H]1[C@@H](O[C@H]2O[C@H](CO)[C@@H](N)[C@H](O)[C@H]2O)OC2C[C@@H](N)[C@@H](O[C@H]3[C@H](O)[C@@H](O)[C@H](N)C[C@@H]3N)OC2[C@@H]1O` (stereo partly drawn) [APRAMYCIN], the inhibition in [1], in [2], in [3] and in test [4] was 60% throughout. In addition, the IC50 in test [5] was 162 µM; in test [6] it was 335 µM; in test [7], 170 µM. The Kd in test [8] (read-out: Kd) came to 2.99 µM; in [9] (read-out: Kd) it was 1.03 µM; in test [10] (read-out: Kd), 4.2 µM; in test [11], 9.05 µM; in [13], 6.55 µM. The figures for the Ratio in [12] and in [14] were 3 and 2.2, respectively. Moreover, the Activity in test [15] was determined as 72%.

Take `CC[C@H]1OC(=O)[C@H](C)[C@@H](O[C@H]2C[C@@](C)(OC)[C@@H](O)[C@H](C)O2)[C@H](C)[C@@H](O[C@@H]2O[C@H](C)C[C@H](N(C)C)[C@H]2O)[C@](C)(O)C[C@@H](C)CN(C)[C@H](C)[C@@H](O)[C@]1(C)O` [AZITHROMYCIN]: the equilibrium dissociation constant (Kd) in test [8] (read-out: Kd) turned out to be 1.62 µM; in test [9] (read-out: Kd), 1.63 µM; in test [10] (read-out: Kd), 1.41 µM; in test [11] it was 1.9 µM; in test [13], 7.43 µM. For the same compound, the Ratio in [12] is 1.2; in test [14], 4.5.

In the case of `NC[C@H]1O[C@H](O[C@H]2[C@H](O)[C@@H](O[C@H]3O[C@H](CO)[C@@H](O)[C@H](N)[C@H]3O)[C@H](N)C[C@@H]2N)[C@H](N)[C@@H](O)[C@@H]1O` [BEKANAMYCIN], the inhibition entry in [1], in [2], in [3] and in [4] was “inactive” each time. Also, the equilibrium dissociation constant (Kd) result in [8], in test [9] and in [10] was “Not Active” each time.

With `O=C(N[C@H](CO)[C@H](O)c1ccc([N+](=O)[O-])cc1)C(Cl)Cl` [CHLORAMPHENICOL], the Kd entry in test [8], in test [9] and in test [10] was “Not Active” in each case.

For the compound `CCC[C@@H]1C[C@@H](C(=O)N[C@@H]([C@H]2O[C@H](SC)[C@H](O)[C@@H](O)[C@H]2O)[C@H](C)Cl)N(C)C1` [CLINDAMYCIN], the equilibrium dissociation constant (Kd) result in [8], in test [9] and in [10] was “Not Active” in each case.

For `C[C@H]1c2cccc(O)c2C(=O)C2=C(O)[C@]3(O)C(=O)C(C(N)=O)=C(O)[C@@H](N(C)C)[C@@H]3[C@@H](O)[C@@H]21` [DOXYCYCLINE], the inhibition in test [1], in test [2], in test [3] and in [4] was 20% in each case. Also, the 50% inhibitory concentration (IC50) in test [5] was 567 µM; in test [16], 380 µM; in test [6] it was 366 µM; in [7] it was 555 µM. The equilibrium dissociation constant (Kd) in test [8] (read-out: Kd) is 0.908 µM; in test [9] (read-out: Kd), 0.94 µM; in [10] (read-out: Kd) it was 1.42 µM; in test [11] it was 2 µM; in [13], 1.62 µM. In addition, the results for the Ratio in [12] and in test [14] were 2 and 1.8, respectively. Further, the Activity in [15] amounted to 78%.

On to `CC[C@H]1OC(=O)[C@H](C)[C@@H](O[C@H]2C[C@@](C)(OC)[C@@H](O)[C@H](C)O2)[C@H](C)[C@@H](O[C@@H]2O[C@H](C)C[C@H](N(C)C)[C@H]2O)[C@](C)(O)C[C@@H](C)C(=O)[C@H](C)[C@@H](O)[C@]1(C)O` [ERYTHROMYCIN], for which the Kd in test [8] (read-out: Kd) was 6.11 µM; in [9] (read-out: Kd), 27.4 µM; in [10] (read-out: Kd), 6.51 µM; in test [11] it was 8.73 µM; in [13], 30.7 µM. In addition, the Ratio was 1.4 in [12] and 5 in test [14].

With `CCC[C@@H]1C[C@@H](C(=O)N[C@@H]([C@H]2O[C@H](SC)[C@H](O)[C@@H](O)[C@H]2O)[C@@H](C)O)N(C)C1` [LINCOMYCIN], the dissociation constant Kd entry in [8], in test [9] and in test [10] was “Not Active” in each case.

As to `CC(=O)NC[C@H]1CN(c2ccc(N3CCOCC3)c(F)c2)C(=O)O1` [LINEZOLID], the Kd result in test [8], in [9] and in [10] was “Not Active” throughout.

Regarding `NC[C@H]1O[C@H](O[C@H]2[C@H](O)[C@@H](O)[C@H](N)C[C@@H]2N)[C@H](N)[C@@H](O)[C@@H]1O` [NEAMINE], the inhibition in [1], in [2], in test [3] and in test [4] was 10% throughout. In addition, the figures for the IC50 in test [5] and in test [6] were 298 µM and 751 µM, respectively. For the same compound, the Kd in test [8] (read-out: Kd) is 160 µM; in test [9] (read-out: Kd), 24.9 µM; in test [10] (read-out: Kd) it was 187 µM; in [11], 394 µM; in test [13], 248 µM. Besides, the Ratio in test [12] is 2.5; in test [14] it was 1.5. In addition, the Activity in [15] was determined as 72%.

For `NC[C@@H]1O[C@H](O[C@H]2[C@@H](O)[C@H](O[C@@H]3[C@@H](O)[C@H](N)C[C@H](N)[C@H]3O[C@H]3O[C@H](CO)[C@@H](O)[C@H](O)[C@H]3N)O[C@@H]2CO)[C@H](N)[C@@H](O)[C@@H]1O` [PAROMOMYCIN], the inhibition in test [1], in [2], in test [3] and in test [4] was 10% in each case. Further, the IC50 in [5] was 773 µM; in test [6], 345 µM; in test [7] it was 543 µM. In addition, the Kd in [8] (read-out: Kd) was 138 µM; in test [9] (read-out: Kd) it was 44 µM; in test [10] (read-out: Kd), 91.2 µM; in test [11], 133 µM; in test [13] it was 167 µM. In addition, the Ratio in test [12] was 1; in [14], 1.2. Besides, the Activity in [15] turned out to be 61%.

For `COc1ccc(C[C@H](N)C(=O)N[C@H]2[C@@H](O)[C@H](n3cnc4c(N(C)C)ncnc43)O[C@@H]2CO)cc1` [PUROMYCIN], the Kd in test [8] (read-out: Kd) is 11.8 µM; in test [9] (read-out: Kd), 5.85 µM; in test [10] (read-out: Kd), 12.7 µM.

On to `CN[C@@H]1[C@H](O)[C@H](NC)[C@H]2O[C@@]3(O)C(=O)C[C@@H](C)O[C@H]3O[C@@H]2[C@H]1O` [SPECTINOMYCIN], for which the inhibition entry in test [1], in test [2], in [3] and in test [4] was “inactive” each time. In addition, the equilibrium dissociation constant (Kd) entry in test [8], in test [9] and in [10] was “Not Active” in each case.

For the compound `CN[C@@H]1[C@H](O[C@H]2[C@H](O[C@H]3[C@H](O)[C@@H](O)[C@H](N=C(N)N)[C@@H](O)[C@@H]3N=C(N)N)O[C@@H](C)[C@]2(O)C=O)O[C@@H](CO)[C@H](O)[C@H]1O` [STREPTOMYCIN], the inhibition entry in test [1], in [2], in test [3] and in [4] was “inactive” each time. The figures for the concentration for half-maximal inhibition (IC50) in test [5] and in [7] were 678 µM and 688 µM, respectively. For the same compound, the Kd in test [8] (read-out: Kd) worked out at 26.8 µM; in [9] (read-out: Kd), 18.5 µM; in [10] (read-out: Kd), 45 µM; in test [11], 61.1 µM; in [13], 48.2 µM. The Ratio amounted to 2 in test [12] and 1.8 in [14]. Also, in test [15], the Activity worked out at 47%.

For GENTAMICIN [listing 1 of 2 here], the IC50 in test [5] was found to be 667 µM; in test [16], 540 µM; in [6], 159 µM; in test [7], 242 µM. Besides, the equilibrium dissociation constant (Kd) was found to be 3.67 µM in test [8] (read-out: Kd); 4.98 µM in [9] (read-out: Kd); 6.64 µM in test [10] (read-out: Kd); 4.2 µM in [11]; 8.1 µM in test [13].

For GENTAMICIN [listing 2 of 2 here], the inhibition in [1], in test [2], in test [3] and in test [4] was 10% in each case. The Ratio in test [12] came to 1.1; in test [14] it was 4. The Activity in test [15] was found to be 63%.

By inhibition is commonly meant the percentage by which the read-out fell short of the control. As a reminder, the IC50 is the concentration that gives 50% inhibition. By Kd is commonly meant the equilibrium constant for the complex coming apart.
